Source: patent US20100144793A1, “NOVEL COMPOUNDS FOR THE TREATMENT OF DISEASES ASSOCIATED WITH AMYLOID OR AMYLOID-LIKE PROTEINS” (AC IMMUNE SA, priority 2006, published 2010)
Counter-ions that a name gives are not always drawn. Like-named read-outs stand apart in the source and are kept apart here.

How the values were obtained:
Aβ1-42 = target: T1, Aβ1-42 (Homo sapiens, UniProt P05067); experiment: Thioflavin T spectrofluorescence assay: inhibition of Aβ1-42 aggregation; type: biochemical
T1 construct: Aβ1-42 lyophilized powder (Bachem) was reconstituted in hexafluoroisopropanol (HFIP) to 1 mM; purchased Bachem
Protocol: (§1) The objective of this example was to evaluate the capacity of the compounds of the invention to inhibit the aggregation of (Aβ)1-42 peptide and to disaggregate pre-aggregated Aβ1-42 using a thioflavin T spectrofluorescence assay.
(§2) Aβ1-42 lyophilized powder (Bachem) was reconstituted in hexafluoroisopropanol (HFIP) to 1 mM. The peptide solution was sonicated for 15 min at room temperature, agitated overnight, and aliquots were placed into non-siliconized microcentrifuge tubes. The HFIP was then evaporated under a stream of argon. The resulting peptide film was dried under vacuum for 10 min, tightly sealed and stored at −80° C. until used.
Aβ1-42 peptide film was dissolved in DMSO to reach 400 μM. Assay solution in PBS was prepared in non-siliconized incubation tubes to reach the following concentrations: 330 μM small molecule, 33 μM Aβ1-42, 10 μM thioflavin T (ThT), and 12.8% DMSO. Therefore, the final molar ratio of small molecule to Aβ1-42 was 10:1. A positive control without a small molecule was prepared to measure maximum RFU. A negative control without Aβ1-42 was prepared for each small molecule. 3-aminopyrazole trimer (Trimer) was tested in all assays to ascertain reproducibility between independent experiments. The solutions were then incubated for 24 h at 37° C., and the spectrofluorescence (relative fluorescence units; RFU) read in six replicates in black 384-well assay plates (Perkin-Elmer) on a Perkin-Elmer FluoroCount spectrofluorometer. Inhibition of aggregation is expressed as mean % inhibition±1 standard deviation (SD) according to the following equation: […]

preformed Aβ1-42 fibers = target: T2, preformed Aβ1-42 fibers (Homo sapiens, UniProt P05067); experiment: Thioflavin T spectrofluorescence assay: disaggregation of preformed Aβ1-42 fibers; type: biochemical; settings: Table 5; 330 μM small molecule, 10:1 molar ratio to pre-aggregated Aβ1-42, additional 24 h at 37° C.; mean ± SD of two independent experiments
T2 construct: Aβ1-42 lyophilized powder (Bachem) was reconstituted in hexafluoroisopropanol (HFIP) to 1 mM; purchased Bachem
Protocol: as §1, §2
This solution was then allowed to aggregate at 37° C. for 24 h after which a small molecule and ThT were added to obtain a final concentration of 330 μM small molecule and 10 μM ThT. […] This solution was then incubated for additional 24 h at 37° C. The spectrofluorescence was then measured and % disaggregation calculated. Disaggregation is expressed as mean % disaggregation±1 standard deviation (SD) according to the same equation as for the inhibition of aggregation.

[1] = target: T3, Oregon Green labeled Aβ(1-42) (Homo sapiens, UniProt P05067); experiment: FCS-assay with 5 nM Oregon Green labeled Aβ-peptide (disaggregation of preformed aggregates); type: biochemical
T3 construct: DMSO-stock solutions of Oregon Green labeled Aβ(1-42) 1:1 with deionized water
Protocol: In order to analyse the disaggregating properties of the compounds, preformed aggregates were used, which were induced straight before the FCS-measurement by diluting low concentrated (500 nM) DMSO-stock solutions of Oregon Green labeled Aβ(1-42) 1:1 with deionized water. The final concentration of Oregon Green labeled Aβ-peptide was 5 nM in 1×PBS and 3% DMSO.
To improve the reproducibility of the measurements of the concentration dependencies all samples were prepared fourfold.

[2] = Table 3, 10:1 small molecule to Aβ1-42 molar ratio, 24 h at 37° C., mean ± SD of two independent experiments, read-out: % Inhibition
[3] = read-out: Percentage of the “number of peaks” value compared to the control reaction without added ligand
[4] = read-out: Percentage of the “peaks × height“ value compared to the control reaction without added ligand

T2 sequence (P05067 672-713 limits assumed): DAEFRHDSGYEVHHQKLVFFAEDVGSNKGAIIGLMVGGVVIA
T3 sequence (P05067 672-713 limits assumed): as above
T1 sequence (P05067 672-713 limits assumed): as above

SMILES | inhibition at 330 µM (Aβ1-42; [2]) | melting point | % disaggregation (preformed Aβ1-42 fibers) | inhibition at 330 µM (Aβ1-42; 24 h) | remaining activity at 0.2 µM [1, 3] | remaining activity at 0.2 µM [1, 4] | further results
Cc1ccc(-c2cc(NCC(=O)Nc3cc(-c4cccs4)[nH]n3)n[nH]2)cc1 [Compound 1aa, N-(5-(Thiophen-2-yl)-1H-pyrazol-3-yl)-2-(5-p-tolyl-1H-pyrazol-3-ylamino)acetamide] | 50.4 ± 0.9% | 246 °C |  |  |  |  | 
Cc1ccc(-c2cc(NCCNc3cc(-c4cccs4)[nH]n3)n[nH]2)cc1 [Compound 1ab, N-(5-(Thiophen-2-yl)-1H-pyrazol-3-yl)-N′-(5-p-tolyl-1H-pyrazol-3-yl)ethane-1,2-diamine bishydrochloride] |  |  | 78.0 ± 4.5% | 85 ± 8.6% |  |  | remaining activity at 0.01 µM [1, 3]: 55.6%; remaining activity at 0.1 µM [1, 3]: 54.2%; remaining activity at 0.01 µM [1, 4]: 27%; remaining activity at 0.1 µM [1, 4]: 51.4%
Cc1ccc(-c2cc(NCC(=O)Nc3cc(-c4ccc(Cl)cc4)[nH]n3)n[nH]2)cc1 [Compound 1ac, N-(5-(4-Chlorophenyl)-1H-pyrazol-3-yl)-2-(5-p-tolyl-1H-pyrazol-3-ylamino)acetamide] | 12.4 ± 5.1% | 257 °C |  |  |  |  | 
Cc1ccc(-c2cc(NC(=O)CNc3cc(-c4ccc(Cl)cc4)[nH]n3)n[nH]2)cc1 [Compound 1ad, 2-(5-(4-Chlorophenyl)-1H-pyrazol-3-ylamino)-N-(5-p-tolyl-1H-pyrazol-3-yl)acetamide] | 55 ± 11.9% | 251 °C |  |  |  |  | 
Cc1ccc(-c2cc(NCCNc3cc(-c4ccc(Cl)cc4)[nH]n3)n[nH]2)cc1 [Compound 1ae, N-(5-(4-Chlorophenyl)-1H-pyrazol-3-yl)-N′-(5-p-tolyl-1H-pyrazol-3-yl)ethane-1,2-diamine bishydrochloride] |  |  | 76.0 ± 2.1% | 83.7 ± 1.7% | 45.5% | 53.1% | remaining activity at 0.01 µM [1, 3]: 72.3%; remaining activity at 0.1 µM [1, 3]: 59.8%; remaining activity at 0.01 µM [1, 4]: 65.5%; remaining activity at 0.1 µM [1, 4]: 60.4%
O=C(CNc1cc(-c2cccs2)[nH]n1)Nc1cc(-c2ccc(Cl)cc2)[nH]n1 [Compound 1af, 2-(5-(Thiophen-2-yl)-1H-pyrazol-3-ylamino)-N-(5-(4-chlorophenyl)-1H-pyrazol-3-yl)acetamide] | 37.6 ± 10.4% | 233 °C |  |  |  |  | 
O=C(CNc1cc(-c2ccc(Cl)cc2)[nH]n1)Nc1cc(-c2cccs2)[nH]n1 [Compound 1ag, N-(5-(Thiophen-2-yl)-1H-pyrazol-3-yl)-2-(5-(4-chlorophenyl)-1H-pyrazol-3-ylamino)acetamide] | 20.8 ± 5.7% | 257 °C |  |  |  |  | 
Clc1ccc(-c2cc(NCCNc3cc(-c4cccs4)[nH]n3)n[nH]2)cc1 [Compound 1ah, N-(5-(4-Chlorophenyl)-1H-pyrazol-3-yl)-N′-(5-(thiophen-2-yl)-1H-pyrazol-3-yl)ethane-1,2-diamine bishydrochloride] |  |  | 88.8 ± 1.6% | 89.1 ± 2.5% | 60.8% | 69.3% | remaining activity at 0.01 µM [1, 3]: 44.4%; remaining activity at 0.1 µM [1, 3]: 61.1%; remaining activity at 1 µM [1, 3]: 83.7%; remaining activity at 5 µM [1, 3]: 82.6%; remaining activity at 25 µM [1, 3]: 75%; remaining activity at 100 µM [1, 3]: 40.9%; remaining activity at 0.01 µM [1, 4]: 38.9%; remaining activity at 0.1 µM [1, 4]: 44.8%; remaining activity at 1 µM [1, 4]: 136%; remaining activity at 5 µM [1, 4]: 112%; remaining activity at 25 µM [1, 4]: 254%; remaining activity at 100 µM [1, 4]: 143%
Cc1ccc(-c2cc(NCCNc3cc(-c4ccc(C)cc4)[nH]n3)n[nH]2)cc1 [Compound 1d, N^1,N^2-bis(5-p-Tolyl-1H-pyrazol-3-yl)ethane-1,2-diamine bishydrochloride] |  |  | 77.1 ± 2.5% | 88.3 ± 1% | 72.8% | 83.1% | 
Clc1ccc(-c2cc(NCCNc3cc(-c4ccc(Cl)cc4)[nH]n3)n[nH]2)cc1 [Compound 1f, N^1,N^2-bis(5-(4-Chlorophenyl)-1H-pyrazol-3-yl)ethane-1,2-diamine bishydrochloride] |  |  | 78.4 ± 1.7% | 86.5 ± 7.4% | 55.9% | 101% | 
COc1ccc(-c2cc(NCCNc3cc(-c4ccc(OC)cc4)[nH]n3)n[nH]2)cc1 [Compound 1g, N^1,N^2-bis(5-(4-Methoxyphenyl)-1H-pyrazol-3-yl)ethane-1,2-diamine bishydrochloride] |  |  | 66.6 ± 4.2% | 68.2 ± 7.7% |  |  | 
Brc1ccc(-c2cc(NCCNc3cc(-c4ccc(Br)cc4)[nH]n3)n[nH]2)cc1 [Compound 1u, N^1,N^2-bis(5-(4-Bromophenyl)-1H-pyrazol-3-yl)ethane-1,2-diamine bishydrochloride] |  |  | 78.8 ± 5.1% | 77.2 ± 1.5% | 58% | 59.2% | remaining activity at 1 µM [1, 3]: 60%; remaining activity at 5 µM [1, 3]: 47.5%; remaining activity at 25 µM [1, 3]: 45%; remaining activity at 100 µM [1, 3]: 35%; remaining activity at 1 µM [1, 4]: 62.4%; remaining activity at 5 µM [1, 4]: 48%; remaining activity at 25 µM [1, 4]: 49.2%; remaining activity at 100 µM [1, 4]: 27.2%
Cc1ccc(-c2cc(NCC(=O)Nc3cc(C)[nH]n3)n[nH]2)cc1 [Compound 1x, N-(5-Methyl-1H-pyrazol-3-yl)-2-(5-p-tolyl-1H-pyrazol-3-ylamino)acetamide] | 35.9 ± 4.7% | 180 °C |  |  |  |  | 
Cc1ccc(-c2cc(NCC(=O)Nc3cc(-c4ccc(C)cc4)[nH]n3)n[nH]2)cc1 [Compound 1y, N-(5-p-Tolyl-1H-pyrazol-3-yl)-2-(5-p-tolyl-1H-pyrazol-3-ylamino)acetamide] | 30.7 ± 3.8% | 238 °C |  |  |  |  | 
Cc1ccc(-c2cc(NC(=O)CNc3cc(-c4cccs4)[nH]n3)n[nH]2)cc1 [Compound 1z, 2-(5-(Thiophen-2-yl)-1H-pyrazol-3-ylamino)-N-(5-p-tolyl-1H-pyrazol-3-yl)acetamide] | 22.1 ± 12.5% | 227 °C |  |  |  |  | 
